Several values for one entry are separate records, joined by “and”; a condition that tells them apart may be missing. Equal values may be shown once. Read-outs that look alike come from different tables or passages of the source. Values belong to the compound of their own block, whether it stands above or below them.
Assays:
[1] = tested on: splenocytes derived from Balb/c and C57BL/6 mice; set-up: method as in Burres et al.1995; conditions: splenocytes from Balb/c and C57BL/6 mice in vitro; ref Burres et al.1995; cited from earlier work
[2] = Pharmacokinetic profile in female db/db mice; assay type: in vivo; conditions: for AUC(0-t) / Cmax / Tmax / half-life / AUC(0-inf): mouse, plasma; for AUC(0-inf): read-out: AUC 0-infinity
Text: Similarly, troglitazone a PPAR-γ […] agonist increases glucose uptake by inducing GLUT4 translocation in L6 skeletal muscles ([Lessard et al. 2006]; [Yonemitsu et al. 2001]). However, these compounds are PPAR-γ agonists, and have several side-effects that cause increased body weight and hepaptoxicity on chronic exposure. […] Prior to planning an efficacy study we determined the pharmacokinetic profile of NFAT-133 (Figure 5, Table 4) using female db/db mice with n = 4 per time point. […] But, since the compound appeared to have a novel mechanism of action, we decided to explore its in vivo efficacy potential by attempting the intraperitoneal route of administration. NFAT-133 administered by the intraperitoneal route achieved plasma concentrations higher than the in vitro EC50 in skeletal muscles.
Figure 5 Pharmacokinetic data of NFAT-133 by oral (A) and intraperitoneal (B) absorption in female db/db mice at 30 mg/kg.

db/db mice = assay: In vivo activity in male db/db mice, 10 days b.i.d.
Method: Male db/db mice (7-9 weeks of age) were housed in individually ventilated cages at room temperature of 22°C ± 2°C, humidity at 55 ± 5%, with a 12:12-h light: dark cycle and throughout the study period had access to water and standard chow ad libitum. The guidelines of the Committee for the Purpose of Control and Supervision of Experiments on Animals, Government of India, were followed and the in-house animal ethics committee approved all experimental procedures.
Male db/db mice were divided into three groups of 10 animals each with similar body weight and plasma glucose (mean ± S.E.M.) levels. […] Body weight was measured daily. On day 10, one hour after the last dose, mice were fasted for four hours so as to minimize the variability between the animals. Blood was collected from the fasted mice, plasma was separated by centrifugation (6000 g at 4°C for 7 minutes) and glucose was estimated using a biochemistry auto analyzer (Hitachi Science Systems Limited, Ibaraki, Japan). A small aliquot of separated plasma was stored at -20°C for estimation of insulin using an ELISA assay kit (Linco Research). Immediately after blood sample collection, mice were sacrificed, livers excised and weighed. The data was reproducible in two independent experiments.
All the results are expressed as Mean ± S.E.M. Statistical analysis was done using GraphPad Prism 4 (version 4.03, GraphPad Software, Inc., CA, USA). For comparison between means of more than two groups one-way analysis of variance (ANOVA) followed by Dunnett's post-hoc analysis was employed.

human PPAR-γ = target: T1, human PPAR-γ (Homo sapiens, UniProt P37231); assay: PPAR-γ luciferase assay in transfected CV1 cells; assay type: cell-based; conditions: for % hPPAR-γ activation: relative to 1 μM rosiglitazone = 100%, n = 3
T1 construct: expressed in transfected cells; host or cells: CV1 cells, transient transfection with lipofectamine
T1 sequence (P37231 1-505): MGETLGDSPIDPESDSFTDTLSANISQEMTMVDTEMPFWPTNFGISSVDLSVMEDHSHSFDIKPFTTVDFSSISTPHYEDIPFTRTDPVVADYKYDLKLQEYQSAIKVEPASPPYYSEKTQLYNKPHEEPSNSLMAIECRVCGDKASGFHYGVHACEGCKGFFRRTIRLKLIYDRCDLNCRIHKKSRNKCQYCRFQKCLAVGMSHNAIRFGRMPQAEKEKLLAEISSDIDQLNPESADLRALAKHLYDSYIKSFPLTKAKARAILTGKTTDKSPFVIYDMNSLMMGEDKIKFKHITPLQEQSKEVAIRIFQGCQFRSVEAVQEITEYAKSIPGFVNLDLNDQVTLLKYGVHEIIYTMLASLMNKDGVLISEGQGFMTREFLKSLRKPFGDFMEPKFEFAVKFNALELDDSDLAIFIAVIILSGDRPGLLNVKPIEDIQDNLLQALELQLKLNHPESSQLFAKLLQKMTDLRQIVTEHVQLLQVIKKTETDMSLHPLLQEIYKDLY
Method: PPAR-γ activation is one of the key mechanisms involved in glucose uptake. […] CV1 cells were seeded onto 24 well plates and transient transfections were conducted after over-night incubation using lipofectamine (Invitrogen, CA, USA). Five hours after transfection, the cells were treated with each compound concentration for an additional 24 h, and the luciferase assay (Promega) was performed according to the manufacture's protocol. Luminescence was measured using the Safire2 reader. […] The entire assay was performed in triplicates.

[3] = tested on: L6 rat skeletal muscle cells; assay: Glucose uptake (14C-2-deoxyglucose) in insulin-sensitized differentiated L6 myotubes; assay type: cell-based; conditions: for EC50: Rattus norvegicus, differentiated L6 myotubes in presence of insulin
Method: The metabolite extract library samples were screened for the ability to induce glucose uptake in insulin stimulated differentiated L6 myotubes. The L6 rat skeletal muscle cells were seeded into 96 well cell culture plates in complete medium (α-MEM + 10% fetal bovine serum + 1% penicillin-streptomycin solution) and maintained at 5% carbon dioxide (CO2) atmosphere. After 48 h, the medium was switched to α-MEM with 2% (v/v) fetal bovine serum (FBS) in order to initiate differentiation. Media change was ensured every 48 h. Compound treatment was conducted once the myoblasts differentiated to form myotubes. The differentiated and fused myotubes were starved in serum free α-MEM for 4 h, treated with samples and further incubated for 24 h. Following treatment and incubation, the cells were sensitized with insulin (200 nM) and incubated for 25 minutes. Radioactive glucose pulsing was done at 0.06 μCi/ml for 10 minutes. The reaction was terminated with cold KRPH buffer. The cell-associated radioactivity was determined by lysing the cells with Microscint PS™ followed by liquid scintillation counting ([Huang et al. 2002]). The assay was performed in triplicate.
For all experiments, the L6 myoblasts obtained from ATCC were used only up to passage seven and were utilized within two months post revival of a new vial.

[4] = tested on: transcription factor - NFAT; set-up: method as in Burres et al.1995; conditions: Jurkat T-cells; ref Burres et al.1995; cited from earlier work
[5] = 100 mg/kg i.p. b.i.d. 10 days, P < 0.001 vs. vehicle

oral bioavailability [2]: poor oral bioavailability
AUC(0-t) ([2]; 30 mg/kg IP): 3220 ng·h/mL
Cmax ([2]; 30 mg/kg IP): 11700 ng/mL and 42.2 µM
Tmax ([2]; 30 mg/kg IP): 4.8 min
half-life ([2]; 30 mg/kg IP): 112 min
AUC(0-inf) ([2]; 30 mg/kg IP): 3550 ng·h/mL
AUC(0-t) ([2]; 30 mg/kg oral): 630 ng·h/mL
Cmax ([2]; 30 mg/kg oral): 3410 ng/mL and 12.3 µM
Tmax ([2]; 30 mg/kg oral): 4.8 min
half-life ([2]; 30 mg/kg oral): 9.6 min
AUC(0-inf) ([2]; 30 mg/kg oral): 650 ng·h/mL
liver weight (db/db mice; 100 mg/kg ip b.i.d. 10 days): 2.0 ± 0.1 g
liver weight (db/db mice; 100 mg/kg ip b.i.d. 10 days, Mean ± S.E.M., n = 10, the values are: liver weight): 2 ± 0.1 g
% hPPAR-γ activation (human PPAR-γ; 30 μM): 0.2%
% hPPAR-γ activation (human PPAR-γ; 100 μM): 9.0%
PPAR-γ activity (human PPAR-γ; concentrations as high as 100 μM): does not induce PPAR-γ activity
SMILES: CC(=O)C(C)C(O)C(C)c1ccc(C)cc1/C=C\CO (stereo not shown) [NFAT-133]
proliferation of splenocytes [1]: block proliferation
plasma glucose levels as compared to vehicle treated animals (db/db mice; [5]): significant reduction
plasma insulin levels as compared to vehicle treated animals (db/db mice; [5]): significant reduction
% Change in body weight (db/db mice; 100 mg/kg ip b.i.d. 10 days, Mean ± S.E.M., n = 10): -1.08 ± 1.21% and -1.1 ± 1.2 %
EC50 [3]: 6.3 ± 1.8 µM
activation of the transcription factor NFAT [4]: inhibit the activation

liver weight (db/db mice; 5 mg/kg po b.i.d. 10 days): 2.7 ± 0.1 g
liver weight (db/db mice; 5 mg/kg po b.i.d. 10 days, Mean ± S.E.M., n = 10, the values are: liver weight): 2.6 ± 0.1 g
SMILES: CN(CCOc1ccc(CC2SC(=O)NC2=O)cc1)c1ccccn1 (stereo not shown) [Rosiglitazone, rosiglitazone, reference compound]
% Change in body weight (db/db mice; 5 mg/kg po b.i.d. 10 days, Mean ± S.E.M., n = 10): 14.6 ± 0.8 %
% Change in body weight (db/db mice; 5 mg/kg po b.i.d. 10 days, Mean ± S.E.M., n = 10, listed as rosiglitazone): 14.63 ± 0.85%
Inference (glucose uptake activity) ([3]; 4 μg/ml): Active
EC50 [3]: 6.9 ± 1.8 µM
